Test system: helper T cells in human PBMCs
Test: ex vivo T cell proliferation assay of peptides with CD8+ / CD25hi depleted PBMC
Format: cell-based
Details: for Number of responding donors: from 50 donors with a range of MHC class haplotypes; for Mean SI: mean stimulation index for responding donors, 50 donors tested; for helper T cell epitope status by T cell assays (database entry): proliferation assay, threshold SI≧2, CD25hi depletion 10 and 20 minutes; for T cell epitope strength (T cell proliferative responses): PBMCs of donor 475, peptide 5 μM

Sequence	Number of responding donors	Mean SI	helper T cell epitope status by T cell assays (database entry)	T cell epitope strength (T cell proliferative responses)
FKGEQGPKG	4	3.5 ± 0.7		
FLLTRILTI	6	3.9 ± 1.6		
FQHESGPLG [test peptide]	3	2.8 ± 0.7		
FQHTSILLI [test peptide]	5	3.8 ± 0.7		
GDKGVSWYQQGSGQS [2-F→G]			negative	
GFGBHIGPLGEP			non-T cell epitope	
GQHASGGLA [control peptide with altered P1 residue]	0			
GQHESASLR [control peptide with altered P1 residue]	0			
GQHESGPLG [control peptide with altered P1 residue]	0			
GQHTSILLI [control peptide with altered P1 residue]	0			
GQHWSYPLT [control peptide with altered P1 residue]	0			
ILWEWASYR	3	2.6 ± 0.6		
IQHESASLR [test peptide]	3	2.6 ± 0.1		
LQHASGGLA [test peptide]	2	2.2 ± 0.2		
LQHWSYPLT	5	6.3 ± 1.3		
LSCAAGGRA	3	2.3 ± 0.5		
PKYRNGQPLNSLKIAT [25 M→G]			negative	
PKYRNMQPLNSLKIAT [compound 25]			helper T cell epitopes	strong
QSISNWGNWYQQKPG [9-L→G]			negative	
TVFYNIPPMPL [compound 26]			helper T cell epitopes	strong
TVGYNIPPMPL [26 F→G]			negative	

Source: patent publication US20100017370A1, “T CELL EPITOPE DATABASES” (ANTITOPE LIMITED, priority 2006, published 2010)
